Measured values taken from article PMC9981747, “A covalent BTK ternary complex compatible with targeted protein degradation” (Nature Communications, 2023).
Several values for one entry are separate records, joined by “and”; a condition that tells them apart may be missing. Equal entries are not always repeated.

Tests used:
BTK^T474I = target: T1, BTK^T474I (Homo sapiens, UniProt Q06187+Q13490, T474I); experiment: Expi293 dose-dependent degradation of BTK gatekeeper mutant; type: cell-based; settings: Expi293 with cIAP1^FL
T1 construct: we used a full-length BTK (aa1-659) with a C terminal Tobacco Etch Virus protease (TEV) site; expressed in transfected cells; host or cells: Expi293 (HEK293)
T1 sequence (Q06187 whole entry T474I, the tested form may be a part): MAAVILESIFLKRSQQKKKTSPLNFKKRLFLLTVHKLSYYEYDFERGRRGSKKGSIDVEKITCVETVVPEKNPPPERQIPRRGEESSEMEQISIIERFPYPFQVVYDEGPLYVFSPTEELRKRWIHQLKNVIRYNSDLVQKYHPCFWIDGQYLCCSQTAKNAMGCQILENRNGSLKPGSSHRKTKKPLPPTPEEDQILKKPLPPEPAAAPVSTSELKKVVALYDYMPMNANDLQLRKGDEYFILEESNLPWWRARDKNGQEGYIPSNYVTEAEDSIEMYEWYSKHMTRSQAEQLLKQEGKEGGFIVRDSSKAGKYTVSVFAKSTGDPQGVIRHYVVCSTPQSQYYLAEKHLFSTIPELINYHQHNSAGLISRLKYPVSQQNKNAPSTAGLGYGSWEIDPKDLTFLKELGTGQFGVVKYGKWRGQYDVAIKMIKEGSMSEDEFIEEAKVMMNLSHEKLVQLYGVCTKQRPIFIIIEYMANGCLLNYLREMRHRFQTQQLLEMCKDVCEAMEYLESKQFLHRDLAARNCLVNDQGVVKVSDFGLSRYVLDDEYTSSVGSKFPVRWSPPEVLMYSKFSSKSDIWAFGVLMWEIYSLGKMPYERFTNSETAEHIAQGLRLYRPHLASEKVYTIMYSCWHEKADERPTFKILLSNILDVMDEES
T1 sequence (Q13490 whole entry, the tested form may be a part): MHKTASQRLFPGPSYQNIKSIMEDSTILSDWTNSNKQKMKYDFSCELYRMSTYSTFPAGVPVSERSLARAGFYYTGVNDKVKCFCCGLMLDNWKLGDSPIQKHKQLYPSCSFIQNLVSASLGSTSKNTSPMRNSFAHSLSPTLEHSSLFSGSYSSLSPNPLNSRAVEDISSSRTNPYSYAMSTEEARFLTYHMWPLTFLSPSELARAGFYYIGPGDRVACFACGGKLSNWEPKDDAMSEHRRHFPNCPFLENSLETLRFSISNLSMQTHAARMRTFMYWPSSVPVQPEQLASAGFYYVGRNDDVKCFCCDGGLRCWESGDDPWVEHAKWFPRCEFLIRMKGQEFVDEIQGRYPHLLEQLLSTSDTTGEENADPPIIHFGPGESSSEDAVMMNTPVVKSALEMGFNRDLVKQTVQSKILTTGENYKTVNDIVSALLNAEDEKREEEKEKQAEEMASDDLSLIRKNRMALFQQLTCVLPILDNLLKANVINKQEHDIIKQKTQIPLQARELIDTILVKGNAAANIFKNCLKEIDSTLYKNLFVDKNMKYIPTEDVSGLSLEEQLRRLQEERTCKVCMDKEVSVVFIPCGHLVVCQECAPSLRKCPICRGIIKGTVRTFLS
Method: (§1) Gibco Expi293 cell line Transfection Kit (Cat.# A14524) was cultured according to the manufacturers conditions. Cells were grown at 37 °C with 5% CO2 to 4 × 10^6 cells/mL using an orbital shaker set to 95 RPM. Next cells were split to 2 × 10^6 cells/mL and transfected with plasmid DNA at a 1 µg/mL final concentration in Optimem (Gibco 31985070) using the Expifectamine 293 transfection reagent according to manufacturer’s conditions. After approximately 18 h, enhancers 1 and 2 (provided with kit). Viability was typically about 85%. When cIAP1^FL was transfected, it was detected via α-cIAP1 antibody there was typically some autoubiquitination detected, and thus often appeared as a laddered or smeared band via western blotting. When BTK^FL variants were transfected, they were detected using anti-BTK antibody (D3H5).
(§2) For dose-dependent degradation assays, cells were plated in a 24-well format and placed on a separate orbital shaker set to 115 RPM. […] Clarified lysate was harvested and quantified using a Pierce BCA Assay Kit (Cat. #23225), and 20 µg of the sample was loaded into a 4–15% Criterion TGX gel (Bio-Rad, 5678085) and transferred to a nitrocellulose membrane (Life Technologies Cat. #IB23001) using an iBlot 2 (Life Technologies Cat. #IB21001). Proteins were detected using an iBind system (Life Technologies SLF2020). […]

BTK^T474I-C481S = target: T2, BTK^T474I-C481S (Homo sapiens, UniProt Q06187+Q13490, C481S/T474I); experiment: Expi293 dose-dependent degradation of BTK double mutant; type: cell-based; settings: Expi293 with cIAP1^FL
T2 construct: we used a full-length BTK (aa1-659) with a C terminal Tobacco Etch Virus protease (TEV) site; expressed in transfected cells; host or cells: Expi293 (HEK293)
T2 sequence (Q06187 whole entry T474I/C481S, the tested form may be a part): as the sequence (Q06187 whole entry T474I, the tested form may be a part) above, with C481S counted along it
T2 sequence (Q13490 whole entry, the tested form may be a part): as the sequence (Q13490 whole entry, the tested form may be a part) above
Method: as §1, §2

BTK^FL-F559A = target: T3, BTK^FL-F559A (Homo sapiens, UniProt Q06187+Q13490, F559A); experiment: Expi293 dose-dependent degradation of BTK^FL-F559A; type: cell-based; settings: for BTK^FL-F559A blot signal normalized to DMSO: replicates
T3 construct: we used a full-length BTK (aa1-659) with a C terminal Tobacco Etch Virus protease (TEV) site; expressed in transfected cells; host or cells: Expi293 (HEK293)
T3 sequence (Q06187 whole entry F559A, the tested form may be a part): as the sequence (Q06187 whole entry T474I, the tested form may be a part) above, with I474T, F559A counted along it
T3 sequence (Q13490 whole entry, the tested form may be a part): as the sequence (Q13490 whole entry, the tested form may be a part) above
Method: as §1
For dose-dependent degradation assays, cells were plated in a 24-well format and placed on a separate orbital shaker set to 115 RPM. Each well was treated with prescribed compound concentrations in the same manner as with THP-1 cells, with the exception of using Expifectamine 293 growth medium in place of RPMI 1640 complete media. After approximately 18 h post-treatment cells were harvested, centrifuged at 100 x g at 4 °C, washed twice with ice-cold PBS, and resuspended in RIPA buffer supplemented with a Roche protease inhibitor cocktail (Cat. #11873580001), and benzonase nuclease (Millipore-Sigma Cat# 70664). Each sample was incubated on ice for 30 min with periodic vortexing and centrifuged at 15 Kxg for 20 min. Clarified lysate was harvested and quantified using a Pierce BCA Assay Kit (Cat. #23225), and 20 µg of the sample was loaded into a 4–15% Criterion TGX gel (Bio-Rad, 5678085) and transferred to a nitrocellulose membrane (Life Technologies Cat. #IB23001) using an iBlot 2 (Life Technologies Cat. #IB21001). Proteins were detected using an iBind system (Life Technologies SLF2020). For BTK^T474I and BTK^T474I/C481S we inferred ligand entry into cells via the autoubiquitination and dose-dependent degradation of cIAP1^FL,[58].
Dose-dependent Degradation was analyzed using ImageJ (NIH, version 1.50i). Densiometric analysis was performed, normalized to DMSO signal, and analyzed using GraphPad Prism (Version 9.0.0 (121)). Non-linear fit one-phase decay analysis was used to obtain DC50 values. When we observed a hook effect, some points were excluded as part of the fit. In Supplementary Fig. 7B the complete curve was fit using GraphPad Prism non-linear regression bell-shaped curve where X is the concentration. However, using this method we were unable to obtain stable values for our DC50. SEM error was plotted for each point. When determining statistically significant differences, we used a two-sided student’s unpaired T-Test.

BTK^FL = target: T4, BTK^FL (Homo sapiens, UniProt Q06187); experiment: Covalent modification of BTK^FL in Expi293 cells without cIAP1, immunopurification and intact mass spectrometry; type: cell-based; settings: for Cov Form Over Time (% covalent bond formation): 5 µM, no exogenous cIAP1, replicates; for BTK^FL covalently modified: 18 h, n = 1
T4 construct: we used a full-length BTK (aa1-659) with a C terminal Tobacco Etch Virus protease (TEV) site; expressed in transfected cells; host or cells: Expi293 (HEK293)
T4 sequence (Q06187 whole entry, the tested form may be a part): as the sequence (Q06187 whole entry T474I, the tested form may be a part) above, with I474T counted along it
Method: (§3) For covalent modification detection assays, the compound was added to Expi293 cells after enhancer treatment. At each timepoint 10 mL of cells were harvested, rapidly cooled to 4 °C in an ice bath, and centrifuged at 100 x g at 4 °C for 5 min. The pellet was washed twice with ice-cold PBS, snap-frozen in liquid nitrogen, and stored at −80 °C. Each pellet was resuspended in 0.1 mL ice-cold RIPA Buffer supplemented with 40 µM BCNC (to outcompete any remaining BCCov), protease inhibitor, and benzonase, and sonicated with 10 brief blasts at power 20. Lysate was centrifuged at 15 K x g for 20 min at 4 °C and prepared for western blotting as detailed above. When samples were evaluated for covalent adduct formation, a purification step was required. Briefly, the ~1 mL of clarified lysate was added to 9 mL of FLAG binding buffer (25 mM HEPES 7.5, 300 mM NaCl, 10% glycerol). These samples were incubated with 250 µL of anti-FLAG M2 affinity resin (Millipore-Sigma Cat. # A2220) for 3 h at 4 °C with gentle nutation. Samples were washed via gravity column filtration and eluted with 0.2 mg/ml FLAG Peptide (DYKDDDDK, CPC Scientific Peptide Company). Each sample was concentrated to 0.1 mg/mL using an Amicon Ultra-15 Centrifugal filter with a 50 kDa MWCO (Millipore-Sigma Cat. # UFC905024). Details on mass spectrometry analysis are below.
Each sample was analyzed using intact mass spectrometry under denaturing conditions using an Agilent 6530 QToF Mass Spectrometer coupled with an Agilent Infinity 1290 UPLC chromatography system. Spectra were analyzed using ChemLaunch v1.6.8 (Healex Systems), Mass Hunter V7.0 (Agilent Technologies), and BioConfirm v8.0 (Agilent Technologies). For all proteins analyzed, approximately 2 μl of 0.1–0.4 mg/ml protein sample was added to 8 μl 0.2% trifluoroacetic acid (TFA) (Sigma T6508–100 mL). Subsequently, 5 μl of each sample was injected onto the instrument. Depending on the resolution, the amount of protein loaded was altered. Theoretical versus observed molecular weight is presented in Supplementary Table 1. While we have not experimentally determined the post-translational modifications (PTMs) resulting in observed molecular weight, we believe a loss of methionine and acetylation are likely. Variations between theoretical and observed masses may also be due to the resolution of the deconvoluted spectra leading to imperfect peak identification, particularly for a protein with heterogeneous phosphorylation states. Variation of several Daltons is observed between biological replicates and individual experiments.

BTK^FL-C481S = target: T5, BTK^FL-C481S (Homo sapiens, UniProt Q06187, C481S); experiment: Covalent modification of BTK^FL-C481S in Expi293 cells, intact mass spectrometry; type: cell-based; settings: 20 µM
T5 construct: we used a full-length BTK (aa1-659) with a C terminal Tobacco Etch Virus protease (TEV) site; expressed in transfected cells; host or cells: Expi293 (HEK293)
T5 sequence (Q06187 whole entry C481S, the tested form may be a part): as the sequence (Q06187 whole entry T474I, the tested form may be a part) above, with I474T, C481S counted along it
Method: as §3, with “These samples were incubated with 250 µL of anti-FLAG M2 affinity resin (Millipore-Sigma Cat. # A2220) for 3 h at 4 °C with gentle nutation. Samples were washed via gravity column filtration and eluted with 0.2 mg/ml FLAG Peptide (DYKDDDDK, CPC Scientific Peptide Company). Each sample was concentrated to 0.1 mg/mL using an Amicon Ultra-15 Centrifugal filter with a 50 kDa MWCO (Millipore-Sigma Cat. # UFC905024). Details on mass spectrometry analysis are below.” left out
Each sample was analyzed using intact mass spectrometry under denaturing conditions using an Agilent 6530 QToF Mass Spectrometer coupled with an Agilent Infinity 1290 UPLC chromatography system. Spectra were analyzed using ChemLaunch v1.6.8 (Healex Systems), Mass Hunter V7.0 (Agilent Technologies), and BioConfirm v8.0 (Agilent Technologies). For all proteins analyzed, approximately 2 μl of 0.1–0.4 mg/ml protein sample was added to 8 μl 0.2% trifluoroacetic acid (TFA) (Sigma T6508–100 mL). […]

cIAP1^BUCR1 = cIAP1^BUCR1 (Homo sapiens, UniProt Q13490); experiment: biochemical
Sequence of cIAP1^BUCR1 (Q13490 260-618): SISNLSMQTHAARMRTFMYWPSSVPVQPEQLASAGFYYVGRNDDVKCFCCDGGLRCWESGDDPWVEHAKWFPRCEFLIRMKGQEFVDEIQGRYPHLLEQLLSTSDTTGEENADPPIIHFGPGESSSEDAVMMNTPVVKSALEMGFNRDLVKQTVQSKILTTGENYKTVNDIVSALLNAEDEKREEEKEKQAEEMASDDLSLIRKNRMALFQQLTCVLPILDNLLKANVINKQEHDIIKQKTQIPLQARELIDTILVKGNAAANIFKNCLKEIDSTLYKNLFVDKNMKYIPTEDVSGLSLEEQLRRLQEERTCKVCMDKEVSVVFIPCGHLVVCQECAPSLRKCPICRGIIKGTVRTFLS
Method: Experiments were performed on a Biacore^TM 8k instrument (GE Healthcare). Biotinylated cIAP1^Bir3 was captured onto a streptavidin sensor chip to levels ranging from 3000–4000 RU. Compound binding experiments were performed in 10 mM HEPES, pH 7.5, 150 mM NaCl, 0.02% BSA, 0.01% P20, and 2% DMSO at 25 °C. Experiments were carried out with n = 4 at 6 concentrations, with the highest concentration of 37 nM and subsequent 3-fold dilutions. BCCov was injected at a flow rate of 30 µL/min, total contact time of 120 s, and dissociation times of 5000 s, using the Single Cycle Kinetics experiment. Binding responses were processed using the Biacore 8k software to zero, x-align, double reference, and correct for excluded volume effects of DMSO in the data.

In the case of `CNC(C)C(=O)NC(C(=O)N1CC(NC(=O)COCCN2CCN(CC=CC(=O)N3CCCC(n4nc(-c5ccc(Oc6ccccc6)cc5)c5c(N)ncnc54)C3)CC2)CC1C(=O)NC1CCCc2ccccc21)C1CCCCC1` (stereo not drawn) [BCCov], the “degradation of BTK^T474I” value (BTK^T474I) is reported as “loss of activity”, the “degradation of BTK^T474I-C481S” value (BTK^T474I-C481S) is reported as “loss of activity” and the “BTK^FL-F559A blot signal normalized to DMSO” value (BTK^FL-F559A; 0.00976562 uM) is reported as 1.17 and 1.06 and 0.96. For the same molecule, the “BTK^FL-F559A blot signal normalized to DMSO” value (BTK^FL-F559A; 0.0195312 uM) was 1.16 and 1.04 and 1.13, the “BTK^FL-F559A blot signal normalized to DMSO” value (BTK^FL-F559A; 0.0390625 uM) was 0.92 and 0.90 and 0.89 and the “BTK^FL-F559A blot signal normalized to DMSO” value (BTK^FL-F559A; 0.078125 uM) was 0.58 (2×) and 0.71. For the same molecule, the “BTK^FL-F559A blot signal normalized to DMSO” value (BTK^FL-F559A; 0.15625 uM) was 0.39 and 0.23 and 0.37, the “BTK^FL-F559A blot signal normalized to DMSO” value (BTK^FL-F559A; 0.3125 uM) was 0.25 and 0.12 and 0.28 and the “BTK^FL-F559A blot signal normalized to DMSO” value (BTK^FL-F559A; 0.625 uM) was 0.23 and 0.10 and 0.24. The “BTK^FL-F559A blot signal normalized to DMSO” value (BTK^FL-F559A; 1.25 uM) was 0.22 and 0.0565 and 0.18, the “BTK^FL-F559A blot signal normalized to DMSO” value (BTK^FL-F559A; 2.5 uM) was 0.23 and 0.05 and 0.19 and the “BTK^FL-F559A blot signal normalized to DMSO” value (BTK^FL-F559A; 5 uM) was 0.18 and 0.08 and 0.22. The “degradation of F559A mutant” value (BTK^FL-F559A; Expi293) was “retains potent cellular degradation”, the “Cov Form Over Time (% covalent bond formation)” value (BTK^FL; 0.5 h) was 5.67% and 6.21% and 5.89% and the “Cov Form Over Time (% covalent bond formation)” value (BTK^FL; 1 h) was 8.64% and 10.21% and 9.49%. For the same molecule, the “Cov Form Over Time (% covalent bond formation)” value (BTK^FL; 2 h) was 14.47% and 13.21% and 14.33%, the “Cov Form Over Time (% covalent bond formation)” value (BTK^FL; 3.5 h) was 19.26% and 19.25% and 19.86% and the “Cov Form Over Time (% covalent bond formation)” value (BTK^FL; 5.5 h) was 31.90% and 34.21% and 30.28%. For the same molecule, the “Cov Form Over Time (% covalent bond formation)” value (BTK^FL; 7 h) was 34.24% and 36.81% and 34.22%, the “Cov Form Over Time (% covalent bond formation)” value (BTK^FL; 17 h) was 33.97% and 36.13% and 34.85% and the “BTK^FL covalently modified” value (BTK^FL; 5 uM) was 35.00%. The “BTK^FL covalently modified” value (BTK^FL; 10 uM) was 64.70%, the “BTK^FL covalently modified” value (BTK^FL; 15 uM) was 77.49% and the “BTK^FL covalently modified” value (BTK^FL; 30 uM) was 94.20%. The “time that the level of covalent modification remains stable post-treatment” value (BTK^FL; single dose 20 µM) was “at least 48 h”, the “covalent adduct formation on BTK^FL-C481S” value (BTK^FL-C481S) was “no similar adduct” and the Kd (cIAP1^BUCR1) was at most 10 nM.
